# Source: patent publication US11208412B2 (DAEGU-GYEONGBUK MEDICAL INNOVATION FOUNDATION, priority 2017, dated 2021)
# Columns and labels:
# Assay in all cases: Kinase selectivity, DiscoverX scanMAX Kinase assay panel (% control)
# Type in all cases: binding
# [1] = molecular target: T1, kinases of the scanMAX Kinase assay panel (Homo sapiens, UniProt Q8TDR2); settings: kinase STK35; 1 uM in DMSO
# T1 construct: purchased DiscoverX Co. (contract measurement) scanMAX Kinase assay panel
# Outline: (§1)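 Read-out is % control, normalised so a positive-control compound sits at 0% and DMSO at 100%: (test − positive)/(negative − positive)×100. Each kinase received the compound at 1 uM in DMSO. A value below 35% counts as activity.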
# [2] = molecular target: T2, kinases of the scanMAX Kinase assay panel (Homo sapiens, UniProt O60331); settings: PIP5K1C; 1 uM
# T2 construct: purchased DiscoverX Co. (contract measurement) scanMAX Kinase assay panel
# T2 sequence (O60331 whole entry): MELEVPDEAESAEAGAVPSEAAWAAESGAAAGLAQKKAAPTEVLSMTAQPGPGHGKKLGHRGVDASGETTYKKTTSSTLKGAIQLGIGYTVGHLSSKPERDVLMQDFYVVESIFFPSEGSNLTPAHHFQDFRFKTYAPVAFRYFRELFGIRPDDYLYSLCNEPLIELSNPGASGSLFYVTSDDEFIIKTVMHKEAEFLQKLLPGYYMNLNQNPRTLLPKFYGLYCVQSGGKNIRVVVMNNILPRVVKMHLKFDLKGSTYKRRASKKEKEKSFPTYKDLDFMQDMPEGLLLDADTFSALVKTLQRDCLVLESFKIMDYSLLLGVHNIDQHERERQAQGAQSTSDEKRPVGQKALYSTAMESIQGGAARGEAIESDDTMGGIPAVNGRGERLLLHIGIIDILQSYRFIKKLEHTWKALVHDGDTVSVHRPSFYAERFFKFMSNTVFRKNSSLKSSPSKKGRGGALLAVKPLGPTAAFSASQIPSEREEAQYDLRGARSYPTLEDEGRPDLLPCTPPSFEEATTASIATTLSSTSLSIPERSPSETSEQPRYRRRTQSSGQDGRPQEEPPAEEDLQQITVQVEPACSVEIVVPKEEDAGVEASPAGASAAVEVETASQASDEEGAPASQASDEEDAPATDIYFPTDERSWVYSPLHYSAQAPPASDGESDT
# Outline: as §1
# [3] = molecular target: T3, kinases of the scanMAX Kinase assay panel (Homo sapiens, UniProt P16591); settings: FER; 1 uM
# T3 construct: purchased DiscoverX Co. (contract measurement) scanMAX Kinase assay panel
# T3 sequence (P16591 whole entry): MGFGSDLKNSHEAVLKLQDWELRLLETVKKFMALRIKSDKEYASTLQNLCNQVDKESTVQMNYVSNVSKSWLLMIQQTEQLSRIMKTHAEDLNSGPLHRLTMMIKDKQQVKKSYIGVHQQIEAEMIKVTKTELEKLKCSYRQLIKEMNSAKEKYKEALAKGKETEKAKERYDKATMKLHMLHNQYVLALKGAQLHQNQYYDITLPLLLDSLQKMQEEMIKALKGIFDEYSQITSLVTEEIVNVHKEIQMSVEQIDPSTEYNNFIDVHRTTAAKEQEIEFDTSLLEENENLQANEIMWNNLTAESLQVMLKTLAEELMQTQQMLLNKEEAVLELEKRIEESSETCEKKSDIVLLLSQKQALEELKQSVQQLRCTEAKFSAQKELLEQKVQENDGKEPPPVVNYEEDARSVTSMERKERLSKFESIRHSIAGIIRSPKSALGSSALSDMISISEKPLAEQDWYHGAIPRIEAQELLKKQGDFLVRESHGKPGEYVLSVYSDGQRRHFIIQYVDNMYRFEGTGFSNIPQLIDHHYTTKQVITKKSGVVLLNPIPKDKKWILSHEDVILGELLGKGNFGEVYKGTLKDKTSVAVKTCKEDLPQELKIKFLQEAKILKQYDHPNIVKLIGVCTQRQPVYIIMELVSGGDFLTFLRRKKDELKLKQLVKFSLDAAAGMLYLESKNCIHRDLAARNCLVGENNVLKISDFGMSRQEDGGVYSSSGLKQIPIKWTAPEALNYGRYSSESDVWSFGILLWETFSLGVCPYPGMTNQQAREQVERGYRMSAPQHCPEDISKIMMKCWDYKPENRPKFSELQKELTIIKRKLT
# Outline: as §1
# [4] = molecular target: T4, kinases of the scanMAX Kinase assay panel (Homo sapiens, UniProt P22694); settings: PKAC-beta; 1 uM
# T4 construct: purchased DiscoverX Co. (contract measurement) scanMAX Kinase assay panel
# Outline: as §1
# [5] = molecular target: T5, kinases of the scanMAX Kinase assay panel (Homo sapiens, UniProt P07332); settings: FES; 1 uM
# T5 construct: purchased DiscoverX Co. (contract measurement) scanMAX Kinase assay panel
# T5 sequence (P07332 whole entry): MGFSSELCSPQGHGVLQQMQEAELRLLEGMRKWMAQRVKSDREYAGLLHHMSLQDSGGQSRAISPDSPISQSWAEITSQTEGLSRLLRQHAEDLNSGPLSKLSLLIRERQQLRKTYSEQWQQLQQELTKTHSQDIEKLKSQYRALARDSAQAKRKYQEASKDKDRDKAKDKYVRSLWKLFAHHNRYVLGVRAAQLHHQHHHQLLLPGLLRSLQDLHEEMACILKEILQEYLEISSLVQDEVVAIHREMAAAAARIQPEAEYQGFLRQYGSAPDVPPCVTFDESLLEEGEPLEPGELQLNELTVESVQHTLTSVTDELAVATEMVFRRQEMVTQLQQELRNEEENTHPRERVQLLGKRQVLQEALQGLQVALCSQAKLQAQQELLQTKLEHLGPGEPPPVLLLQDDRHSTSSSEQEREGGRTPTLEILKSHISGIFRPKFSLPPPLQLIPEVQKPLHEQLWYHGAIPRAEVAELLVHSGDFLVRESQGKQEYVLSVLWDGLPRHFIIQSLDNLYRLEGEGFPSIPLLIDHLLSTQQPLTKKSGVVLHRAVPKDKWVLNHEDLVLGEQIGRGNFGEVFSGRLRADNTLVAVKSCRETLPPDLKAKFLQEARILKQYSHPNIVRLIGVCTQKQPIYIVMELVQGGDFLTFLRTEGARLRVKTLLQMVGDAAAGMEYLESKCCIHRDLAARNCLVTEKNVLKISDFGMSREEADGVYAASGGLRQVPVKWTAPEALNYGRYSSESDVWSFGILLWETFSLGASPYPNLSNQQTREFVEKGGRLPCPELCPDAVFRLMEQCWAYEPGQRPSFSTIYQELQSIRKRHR
# Outline: as §1
# [6] = molecular target: T6, kinases of the scanMAX Kinase assay panel (Homo sapiens, UniProt Q08881); settings: ITK; 1 uM
# T6 construct: purchased DiscoverX Co. (contract measurement) scanMAX Kinase assay panel
# T6 sequence (Q08881 1-620): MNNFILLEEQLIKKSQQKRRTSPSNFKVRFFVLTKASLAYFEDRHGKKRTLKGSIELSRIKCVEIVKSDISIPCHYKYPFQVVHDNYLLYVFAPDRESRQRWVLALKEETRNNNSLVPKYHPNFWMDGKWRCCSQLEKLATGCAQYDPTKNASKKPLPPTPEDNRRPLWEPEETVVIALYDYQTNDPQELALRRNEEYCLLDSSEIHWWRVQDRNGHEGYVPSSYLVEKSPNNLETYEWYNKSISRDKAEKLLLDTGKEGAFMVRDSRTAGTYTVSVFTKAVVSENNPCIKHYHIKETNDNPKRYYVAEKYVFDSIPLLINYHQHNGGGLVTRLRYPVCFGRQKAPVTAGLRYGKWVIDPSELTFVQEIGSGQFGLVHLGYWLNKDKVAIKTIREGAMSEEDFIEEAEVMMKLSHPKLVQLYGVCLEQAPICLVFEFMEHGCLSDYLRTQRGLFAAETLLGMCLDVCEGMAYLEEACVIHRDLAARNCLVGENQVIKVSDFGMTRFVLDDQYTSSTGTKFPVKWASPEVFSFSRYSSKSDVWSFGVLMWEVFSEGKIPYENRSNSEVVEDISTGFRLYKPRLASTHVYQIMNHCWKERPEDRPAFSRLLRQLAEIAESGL
# Outline: as §1
# [7] = molecular target: T7, kinases of the scanMAX Kinase assay panel (Homo sapiens, UniProt O00141); settings: kinase SGK; 1 uM in DMSO
# T7 construct: purchased DiscoverX Co. (contract measurement) scanMAX Kinase assay panel
# T7 sequence (O00141 1-431): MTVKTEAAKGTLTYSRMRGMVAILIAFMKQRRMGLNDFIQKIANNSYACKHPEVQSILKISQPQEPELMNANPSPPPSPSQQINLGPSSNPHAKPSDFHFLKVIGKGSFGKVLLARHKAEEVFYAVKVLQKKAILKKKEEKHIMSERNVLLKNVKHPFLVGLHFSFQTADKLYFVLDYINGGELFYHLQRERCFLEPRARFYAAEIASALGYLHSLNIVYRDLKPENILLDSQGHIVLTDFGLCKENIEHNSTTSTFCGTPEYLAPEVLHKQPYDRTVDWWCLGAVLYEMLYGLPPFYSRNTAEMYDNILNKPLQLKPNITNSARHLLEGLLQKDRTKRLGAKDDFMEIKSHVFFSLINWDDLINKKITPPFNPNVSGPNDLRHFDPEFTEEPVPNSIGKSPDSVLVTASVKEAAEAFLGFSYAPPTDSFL
# Outline: as §1
# [8] = molecular target: T8, kinases of the scanMAX Kinase assay panel (Homo sapiens, UniProt O15146); settings: MUSK; 1 uM
# T8 construct: purchased DiscoverX Co. (contract measurement) scanMAX Kinase assay panel
# T8 sequence (O15146 24-869): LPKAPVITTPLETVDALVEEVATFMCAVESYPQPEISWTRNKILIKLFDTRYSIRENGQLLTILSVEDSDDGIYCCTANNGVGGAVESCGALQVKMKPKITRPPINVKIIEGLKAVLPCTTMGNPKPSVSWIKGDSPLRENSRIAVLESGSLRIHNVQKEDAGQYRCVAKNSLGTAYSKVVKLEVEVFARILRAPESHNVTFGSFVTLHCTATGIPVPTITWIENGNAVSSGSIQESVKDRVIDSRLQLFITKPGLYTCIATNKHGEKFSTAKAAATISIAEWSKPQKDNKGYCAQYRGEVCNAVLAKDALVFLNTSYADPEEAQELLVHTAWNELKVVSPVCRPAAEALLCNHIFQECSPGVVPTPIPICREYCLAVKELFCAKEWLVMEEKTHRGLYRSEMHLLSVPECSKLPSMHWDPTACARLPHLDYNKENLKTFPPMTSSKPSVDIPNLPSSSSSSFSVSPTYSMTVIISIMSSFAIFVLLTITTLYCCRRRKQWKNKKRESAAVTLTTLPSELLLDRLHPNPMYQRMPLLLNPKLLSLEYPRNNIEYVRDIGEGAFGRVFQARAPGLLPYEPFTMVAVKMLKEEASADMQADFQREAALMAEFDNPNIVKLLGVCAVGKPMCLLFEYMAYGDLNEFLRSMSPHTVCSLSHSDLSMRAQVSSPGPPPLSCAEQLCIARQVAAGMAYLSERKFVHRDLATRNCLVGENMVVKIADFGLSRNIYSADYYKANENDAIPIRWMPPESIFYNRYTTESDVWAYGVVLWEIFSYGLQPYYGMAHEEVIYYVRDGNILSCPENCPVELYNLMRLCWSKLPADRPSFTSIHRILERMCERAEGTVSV
# Outline: as §1
# [9] = molecular target: T9, kinases of the scanMAX Kinase assay panel (Homo sapiens, UniProt O43353); settings: kinase RIPK2; 1 uM in DMSO
# T9 construct: purchased DiscoverX Co. (contract measurement) scanMAX Kinase assay panel
# T9 sequence (O43353 whole entry): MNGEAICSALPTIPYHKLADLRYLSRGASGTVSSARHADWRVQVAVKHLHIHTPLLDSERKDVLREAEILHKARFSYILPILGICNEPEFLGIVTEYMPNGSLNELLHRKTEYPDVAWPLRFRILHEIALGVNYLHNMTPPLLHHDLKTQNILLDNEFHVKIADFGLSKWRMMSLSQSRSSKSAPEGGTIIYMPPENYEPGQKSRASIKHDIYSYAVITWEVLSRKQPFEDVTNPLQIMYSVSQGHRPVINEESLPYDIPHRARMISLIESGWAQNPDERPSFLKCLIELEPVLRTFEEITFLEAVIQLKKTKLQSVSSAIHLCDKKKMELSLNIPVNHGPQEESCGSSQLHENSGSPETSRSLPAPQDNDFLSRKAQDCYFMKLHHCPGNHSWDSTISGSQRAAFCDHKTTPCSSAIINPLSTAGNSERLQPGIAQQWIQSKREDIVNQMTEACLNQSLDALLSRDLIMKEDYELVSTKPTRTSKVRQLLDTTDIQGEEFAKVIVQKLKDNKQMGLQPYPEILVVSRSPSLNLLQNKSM
# Outline: as §1
# T1 sequence (Q8TDR2 whole entry): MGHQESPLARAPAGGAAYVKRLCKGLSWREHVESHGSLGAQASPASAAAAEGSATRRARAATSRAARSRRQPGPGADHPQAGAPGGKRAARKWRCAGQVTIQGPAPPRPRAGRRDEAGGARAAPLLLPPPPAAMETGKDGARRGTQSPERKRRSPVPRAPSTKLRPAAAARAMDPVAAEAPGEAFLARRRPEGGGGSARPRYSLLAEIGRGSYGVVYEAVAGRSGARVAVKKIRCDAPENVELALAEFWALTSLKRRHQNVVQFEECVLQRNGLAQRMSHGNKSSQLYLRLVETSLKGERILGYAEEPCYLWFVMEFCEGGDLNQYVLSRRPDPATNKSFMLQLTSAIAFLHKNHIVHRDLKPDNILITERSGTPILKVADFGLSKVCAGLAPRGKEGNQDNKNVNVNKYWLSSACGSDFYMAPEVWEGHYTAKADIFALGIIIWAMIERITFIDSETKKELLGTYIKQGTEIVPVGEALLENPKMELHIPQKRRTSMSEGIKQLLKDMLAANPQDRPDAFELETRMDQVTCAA
Structure (SMILES),remaining binding at 1 µM [1] [%],remaining binding at 1 µM [2] [%],remaining binding at 1 µM [3] [%],remaining binding at 1 µM [4] [%],remaining binding at 1 µM [5] [%],remaining binding at 1 µM [6] [%],remaining binding at 1 µM [7] [%],remaining binding at 1 µM [8] [%],remaining binding at 1 µM [9] [%]
"CCNc1nc(Nc2ccc(C(=O)N3CCC(N4CCOCC4)CC3)cc2OC)nc2[nH]cc(C(F)(F)F)c12 [Example 104, (4-((4-(ethylamino)-5-(trifluoromethyl)-7H-pyrrolo[2,3-d]pyrimidine-2-yl)amino)-3-methoxyphenyl)(4-morpholinopiperidine-1-yl)methanone]",100,100,3,100,36,100,100,94,100
"CNc1nc(Nc2ccc(C(=O)N3CCOCC3)cc2OC)nc2[nH]cc(C#N)c12 [Example 1, 2-((2-methoxy-4-(morpholine-4-carbonyl)phenyl)amino)-4-(methylamino)-7H-pyrrolo[2,3-d]pyrimidine-5-carbonitrile]",100,1,15,89,61,99,48,97,100
"CC1(Nc2nc(Nc3cnn([C@H]4CCN(C5COC5)C[C@@H]4F)c3Cl)nc3[nH]cc(C#N)c23)CC1 [Example 52, 2-((5-chloro-1-((3S,4S)-3-fluoro-1-(oxetane-3-yl)piperidine-4-yl)-1H-pyrazole-4-yl)amino)((1-methylcyclopropyl)amino)-7H-pyrrolo[2,3-d]pyrimidine-5-carbonitrile]",14,0,0.25,95,1.3,9.7,18,100,61
